{"source": "ChEMBL document CHEMBL1201862", "about": "“PubChem BioAssay data set” (2004)", "key": {"Cytochrome P450 1A2": {"target": "T1, Cytochrome P450 1A2 (Homo sapiens, UniProt P05177)", "T1 sequence (P05177 whole entry)": "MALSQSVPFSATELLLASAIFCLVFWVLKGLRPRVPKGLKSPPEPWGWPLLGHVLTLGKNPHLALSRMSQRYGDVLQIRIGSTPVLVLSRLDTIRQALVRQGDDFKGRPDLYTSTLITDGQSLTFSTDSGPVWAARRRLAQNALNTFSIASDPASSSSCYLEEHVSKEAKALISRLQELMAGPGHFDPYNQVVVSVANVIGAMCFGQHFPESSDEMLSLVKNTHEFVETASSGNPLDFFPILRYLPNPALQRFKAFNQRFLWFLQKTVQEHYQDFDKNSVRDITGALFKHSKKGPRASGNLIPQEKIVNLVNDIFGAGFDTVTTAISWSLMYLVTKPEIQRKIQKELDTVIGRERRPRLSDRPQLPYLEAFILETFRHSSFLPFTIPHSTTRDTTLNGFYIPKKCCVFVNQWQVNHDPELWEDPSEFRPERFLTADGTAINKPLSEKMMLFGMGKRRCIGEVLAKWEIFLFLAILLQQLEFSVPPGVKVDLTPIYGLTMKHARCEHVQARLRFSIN"}, "[1]": {"target": "T2, Rac GTPase-activating protein 1 (Homo sapiens, UniProt Q9H0H5)", "T2 sequence (Q9H0H5 whole entry)": "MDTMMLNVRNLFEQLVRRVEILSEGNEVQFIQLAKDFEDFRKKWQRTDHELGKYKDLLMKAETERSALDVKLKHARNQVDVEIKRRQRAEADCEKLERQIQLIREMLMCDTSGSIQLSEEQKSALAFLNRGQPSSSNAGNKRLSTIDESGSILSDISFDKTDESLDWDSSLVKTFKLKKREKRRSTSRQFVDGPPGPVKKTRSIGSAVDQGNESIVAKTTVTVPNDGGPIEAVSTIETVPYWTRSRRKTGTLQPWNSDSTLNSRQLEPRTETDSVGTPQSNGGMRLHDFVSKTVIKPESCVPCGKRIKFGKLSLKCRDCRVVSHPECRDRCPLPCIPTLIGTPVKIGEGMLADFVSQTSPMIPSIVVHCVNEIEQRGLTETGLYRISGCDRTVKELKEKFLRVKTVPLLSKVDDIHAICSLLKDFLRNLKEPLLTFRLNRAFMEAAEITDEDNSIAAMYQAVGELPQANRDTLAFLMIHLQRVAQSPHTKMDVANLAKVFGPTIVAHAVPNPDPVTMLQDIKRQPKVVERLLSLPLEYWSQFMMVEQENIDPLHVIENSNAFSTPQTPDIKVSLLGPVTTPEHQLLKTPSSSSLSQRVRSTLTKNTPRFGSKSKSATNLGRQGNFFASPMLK", "assay": "MgcRacGAP GTPase-activating activity inhibitors, confirmation, biochemical, ADP Hunter fluorescence, primary and confirmatory (AID 624330)", "assay_type": "functional"}, "[2]": {"target": "T3, Replicative DNA helicase DnaB (Mycobacterium tuberculosis, UniProt P9WMR3)", "T3 sequence (P9WMR3 whole entry)": "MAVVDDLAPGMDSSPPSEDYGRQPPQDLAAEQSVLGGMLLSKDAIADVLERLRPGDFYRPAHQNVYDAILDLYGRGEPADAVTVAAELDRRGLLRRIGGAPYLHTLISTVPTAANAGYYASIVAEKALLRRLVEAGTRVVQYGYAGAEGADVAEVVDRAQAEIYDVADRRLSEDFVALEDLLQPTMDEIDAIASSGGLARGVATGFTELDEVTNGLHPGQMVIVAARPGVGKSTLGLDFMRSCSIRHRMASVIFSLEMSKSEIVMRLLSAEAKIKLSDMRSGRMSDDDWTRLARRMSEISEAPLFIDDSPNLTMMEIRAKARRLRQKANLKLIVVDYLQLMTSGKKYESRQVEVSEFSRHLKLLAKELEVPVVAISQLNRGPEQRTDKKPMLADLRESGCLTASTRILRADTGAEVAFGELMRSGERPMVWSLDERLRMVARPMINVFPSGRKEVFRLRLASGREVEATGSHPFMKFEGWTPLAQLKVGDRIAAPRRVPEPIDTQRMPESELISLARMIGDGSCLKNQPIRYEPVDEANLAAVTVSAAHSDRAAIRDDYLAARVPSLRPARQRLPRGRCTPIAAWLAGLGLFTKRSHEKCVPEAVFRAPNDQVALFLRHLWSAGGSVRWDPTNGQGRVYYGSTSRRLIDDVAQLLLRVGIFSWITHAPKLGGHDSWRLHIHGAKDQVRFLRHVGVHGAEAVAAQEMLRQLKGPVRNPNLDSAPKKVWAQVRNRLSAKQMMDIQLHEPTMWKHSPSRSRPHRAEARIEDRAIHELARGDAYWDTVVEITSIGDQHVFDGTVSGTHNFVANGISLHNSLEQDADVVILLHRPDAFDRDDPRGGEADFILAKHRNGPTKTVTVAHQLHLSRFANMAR", "assay": "DnaB intein splicing inhibitors, dose response, biochemical, cell-free fluorescence (AID 449749)", "assay_type": "functional"}, "Protein RecA": {"target": "T4, Protein RecA (Mycobacterium tuberculosis, UniProt P9WHJ3)", "T4 sequence (P9WHJ3 whole entry)": "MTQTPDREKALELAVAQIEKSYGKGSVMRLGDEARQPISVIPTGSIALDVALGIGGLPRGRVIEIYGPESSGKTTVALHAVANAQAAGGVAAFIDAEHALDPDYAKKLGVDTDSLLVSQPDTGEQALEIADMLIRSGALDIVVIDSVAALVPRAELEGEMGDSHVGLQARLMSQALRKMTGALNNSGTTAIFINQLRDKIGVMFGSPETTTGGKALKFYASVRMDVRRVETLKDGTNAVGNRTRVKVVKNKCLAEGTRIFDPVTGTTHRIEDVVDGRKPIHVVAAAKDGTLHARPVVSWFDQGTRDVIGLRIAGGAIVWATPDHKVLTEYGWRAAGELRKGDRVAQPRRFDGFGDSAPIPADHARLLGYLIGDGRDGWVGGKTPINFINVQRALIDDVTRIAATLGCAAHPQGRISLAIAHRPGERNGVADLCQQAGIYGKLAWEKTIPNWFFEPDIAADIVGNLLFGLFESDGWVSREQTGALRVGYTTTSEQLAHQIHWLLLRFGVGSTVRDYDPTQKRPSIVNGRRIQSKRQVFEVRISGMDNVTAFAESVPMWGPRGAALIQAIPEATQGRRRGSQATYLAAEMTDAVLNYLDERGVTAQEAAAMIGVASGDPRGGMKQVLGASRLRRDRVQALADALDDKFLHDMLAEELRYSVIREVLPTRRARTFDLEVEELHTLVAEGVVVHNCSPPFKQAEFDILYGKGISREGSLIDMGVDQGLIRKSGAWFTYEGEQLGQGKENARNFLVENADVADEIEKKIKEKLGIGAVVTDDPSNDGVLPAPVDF", "assay": "Fluorescence Cell-Free Homogeneous Dose Retest to Identify Inhibitors of RecA-Intein Splicing Activity. [Related pubchem assays (depositor defined):AID2097, AID2223, AID489010, AID492950]", "assay_type": "functional"}, "[3]": {"assay": "HEp-2 cell cytotoxicity, dose response, cytotoxicity control for RSV inhibitor project, HTS (AID 2410)", "assay_type": "functional", "settings": "human respiratory syncytial virus"}, "[4]": {"assay": "NIH-3T3 fibroblast cytotoxicity, dose response, cytotoxicity control, cell-based, fluorescence, Alamar Blue, secondary assay (AID 2327);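 note: NIH-3T3 mouse fibroblasts cultured with fluconazole at 8 µg/mL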", "assay_type": "functional"}, "Cytochrome P450 2C9": {"target": "Cytochrome P450 2C9 (Homo sapiens, UniProt P11712)", "sequence (P11712 whole entry)": "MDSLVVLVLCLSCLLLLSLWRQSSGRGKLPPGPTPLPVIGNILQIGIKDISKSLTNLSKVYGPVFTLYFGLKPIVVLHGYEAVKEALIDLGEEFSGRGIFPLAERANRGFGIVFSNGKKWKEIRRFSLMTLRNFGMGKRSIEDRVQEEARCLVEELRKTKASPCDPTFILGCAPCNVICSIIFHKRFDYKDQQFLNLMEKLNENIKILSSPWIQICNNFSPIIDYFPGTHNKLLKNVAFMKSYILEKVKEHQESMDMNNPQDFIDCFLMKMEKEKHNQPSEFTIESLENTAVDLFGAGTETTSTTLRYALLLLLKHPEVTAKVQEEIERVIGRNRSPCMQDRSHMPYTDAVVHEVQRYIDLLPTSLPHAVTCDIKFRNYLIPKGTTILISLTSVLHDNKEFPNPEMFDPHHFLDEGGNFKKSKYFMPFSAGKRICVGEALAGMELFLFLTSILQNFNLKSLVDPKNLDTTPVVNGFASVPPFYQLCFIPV"}}, "note": "Activity calls are given as the source filed them.", "data": [{"smiles": "COC(=O)[C@@]1(Cc2ccccc2)[C@H]2c3cc(C(=O)N4CCCC4)n(C)c3C[C@H]2CN1C(=O)c1ccccc1", "values": [{"measurement": "AC50", "setting": "Cytochrome P450 1A2", "result": "25.1 µM (inconclusive)"}]}, {"smiles": "CC(NCc1ccc(S(N)(=O)=O)cc1)C(=O)N1c2ccccc2CC1C", "note": "(stereo not drawn)", "values": [{"measurement": "IC50", "setting": "[1]", "result": "135 µM (active)"}]}, {"smiles": "O=C(NC(=C(Cl)Cl)S(=O)(=O)c1ccc(Cl)cc1)c1ccccc1", "values": [{"measurement": "AC50", "setting": "[2]", "result": "> 380 µM (inactive)"}, {"measurement": "EC50", "setting": "Protein RecA", "result": "1.53 µM (active)"}]}, {"smiles": "CCOC(=O)/C(C#N)=C1\\C(=O)N(Cc2ccccc2)c2ccccc21", "values": [{"measurement": "IC50", "setting": "[1]", "result": "42.4 µM (active)"}]}, {"smiles": "CCC(C)Oc1ccc(/C=C/c2nc(O)nc(O)c2[N+](=O)[O-])cc1OC", "note": "(stereo not drawn)", "values": [{"measurement": "CC50", "setting": "[3]", "result": "12.9 µM (active)"}]}, {"smiles": "COC(=O)c1ccccc1OC(=O)c1ccc(Br)o1", "values": [{"measurement": "AC50", "setting": "[2]", "result": "12.8 µM (active)"}, {"measurement": "EC50", "setting": "Protein RecA", "result": "15.2 µM (active)"}]}, {"smiles": "O=c1c2ccccc2nc(-c2ccc([N+](=O)[O-])cc2)n1O", "values": [{"measurement": "EC50", "setting": "[4]", "result": "> 150 µM (inactive)"}]}, {"smiles": "COc1ccc(-c2cc(OC)c3ccccc3n2)cc1", "values": [{"measurement": "CC50", "setting": "[3]", "result": "> 50 µM (active)"}]}, {"smiles": "CCOc1cc(C(c2c(C)n[nH]c2O)c2c(C)n[nH]c2O)ccc1OS(=O)(=O)c1ccc(C)cc1", "values": [{"measurement": "AC50", "setting": "[2]", "result": "0.413 µM (active)"}, {"measurement": "EC50", "setting": "Protein RecA", "result": "0.152 µM (active)"}]}, {"smiles": "CC1(C)SC(=S)N(NC(=O)Nc2ccccc2)C1N(O)C(=O)Nc1ccccc1", "note": "(stereo not drawn)", "values": [{"measurement": "AC50", "setting": "Cytochrome P450 1A2", "result": "28.2 µM (inconclusive)"}]}, {"smiles": "COc1ccc(CN2CN(c3ccc(Cl)cc3)C(=O)N(n3cnnc3)C2)cc1", "values": [{"measurement": "AC50", "setting": "Cytochrome P450 1A2", "result": "15.8 µM (inconclusive)"}, {"measurement": "AC50", "setting": "Cytochrome P450 2C9", "result": "39.8 µM (inconclusive)"}]}, {"smiles": "COC(=O)Cc1c(C)nc2nc(NCc3ccccc3OC)nn2c1O", "values": [{"measurement": "AC50", "setting": "Cytochrome P450 2C9", "result": "22.4 µM (inconclusive)"}]}, {"smiles": "COCCn1c(=O)cnc2cnc(Nc3cccc(OC)c3)nc21", "values": [{"measurement": "AC50", "setting": "Cytochrome P450 2C9", "result": "25.1 µM (inconclusive)"}]}, {"smiles": "Cc1oc(-c2ccccc2Cl)nc1CSCC(=O)NC1CC1", "values": [{"measurement": "AC50", "setting": "Cytochrome P450 2C9", "result": "20 µM (inconclusive)"}]}, {"smiles": "CCN(Cc1ccccc1)C1CCN(Cc2ccc(SC)cc2)CC1", "values": [{"measurement": "IC50", "setting": "[1]", "result": "100 µM (active)"}]}, {"smiles": "Oc1ncnc2scc(-c3ccc(Br)cc3)c12", "values": [{"measurement": "CC50", "setting": "[3]", "result": "> 50 µM (active)"}]}, {"smiles": "COc1ccc(C)cc1Nc1nc(N)c2ccccc2n1", "values": [{"measurement": "CC50", "setting": "[3]", "result": "> 50 µM (active)"}]}, {"smiles": "CCNC(=O)c1ccccc1-c1nc(-c2ccccc2)no1", "values": [{"measurement": "AC50", "setting": "[2]", "result": "> 380 µM (inactive)"}, {"measurement": "EC50", "setting": "Protein RecA", "result": "> 380 µM (inactive)"}]}, {"smiles": "CN(C)c1ncc2nc(-c3ccccc3)c(=O)n(Cc3ccc(F)cc3)c2n1", "values": [{"measurement": "AC50", "setting": "Cytochrome P450 1A2", "result": "12.6 µM (inconclusive)"}]}, {"smiles": "CC(C)C(=O)N1CCN(c2c(Cl)cccc2[N+](=O)[O-])CC1", "values": [{"measurement": "CC50", "setting": "[3]", "result": "16.3 µM (active)"}]}, {"smiles": "COc1ccccc1Nc1ncc(-c2cccs2)s1", "values": [{"measurement": "CC50", "setting": "[3]", "result": "43 µM (active)"}]}, {"smiles": "CNC(=S)N1CCN(c2ccccc2OC)CC1", "values": [{"measurement": "AC50", "setting": "Cytochrome P450 2C9", "result": "14.1 µM (inconclusive)"}]}, {"smiles": "CN(C)CCn1c(C(=O)O)cc2ccccc21", "values": [{"measurement": "AC50", "setting": "Cytochrome P450 1A2", "result": "0.0158 µM (inconclusive)"}]}]}
